Tested on: CD86 surface expression on CD19+/7AAD- total mouse splenocytes stimulated with IgM
Experiment: CD86 Inhibition Assay
Format: cell-based
Conditions: Splenocyte; Balb/c mouse splenocytes, IgM stimulation, 24 hr
Protocol: A CD86 Inhibition assay can be conducted on Formula I compounds for the inhibition of B cell activity using total mouse splenocytes purified from spleens of 8-16 week old Balb/c mice (Example 905).
A generalized procedure for a standard assay for the inhibition of B cell activity that can be used to test Formula I compounds is as follows. Total mouse splenocytes are purified from spleens of 8-16 week old Balb/c mice by red blood cell lysis (BD Pharmingen #555899). Testing compounds are diluted to 0.5% DMSO and incubated with 1.25×10^6 splenocytes in a final volume of 200 μl in flat clear bottom plates (Falcon 353072) for 60 min at 37° C. Cells are then stimulated with the addition of 15 μg/ml IgM (Jackson ImmunoResearch 115-006-020), and incubated for 24 hr at 37° C., 5% CO2. Following the 24 hr incubation, cells are transferred to conical bottom clear 96-well plates and pelleted by centrifugation at 1200×g×5 min. Cells are preblocked by CD16/CD32 (BD Pharmingen #553142), followed by triple staining with CD19-FITC (BD Pharmingen #553785), CD86-PE (BD Pharmingen #553692), and 7AAD (BD Pharmingen #51-68981E). Cells are sorted on a BD FACSCalibur and gated on the CD19^+/7AAD^− population. The levels of CD86 surface expression on the gated population is measured versus test compound concentration. Exemplary results are in Table 3.

SMILES | EC50 [nM]
Cn1cc(-c2cccc(N3Cc4cc(C(C)(C)C)ccc4C3=O)c2CO)nc(Nc2cnn(C3CC3)c2)c1=O [Compound 109, 5-tert-butyl-2-(3-(6-(1-cyclopropyl-1H-pyrazol-4-ylamino)-4-methyl-5-oxo-4,5-dihydropyrazin-2-yl)-2-(hydroxymethyl)phenyl) isoindolin-1-one] | 113
Cn1cc(-c2cccc(N3Cc4cc(C(C)(C)C)ccc4C3=O)c2CO)cc(Nc2ccc(C3CNC3)cn2)c1=O [Compound 117, 2-(3-(5-(5-(azetidin-3-yl)pyridin-2-ylamino)-1-methyl-6-oxo-1,6-dihydropyridin-3-yl)-2-(hydroxymethyl)phenyl)-5-tert-butylisoindolin-1-one] | 154
Cc1c(-c2cn(C)c(=O)c(Nc3ccc(C4C(=O)N(C)CCN4C)cc3)n2)cccc1N1Cc2cc(C(C)(C)C)ccc2C1=O (centres unmarked) [Compound 127, 5-tert-butyl-2-[3-(6-{[4-(1,4-dimethyl-3-oxopiperazin-2-yl)phenyl]amino}-4-methyl-5-oxo-4,5-dihydropyrazin-2-yl)-2-methylphenyl]-2,3-dihydro-1H-isoindol-1-one] | 498
Cn1cc(-c2cccc(N3Cc4cc(C(C)(C)C)sc4C3=O)c2CO)nc(Nc2ccc(C3CCNCC3)cc2)c1=O [Compound 152, 5-(3-{2-tert-butyl-6-oxo-4H,5H,6H-thieno[2,3-c]pyrrol-5-yl}-2-(hydroxymethyl)phenyl)-1-methyl-3-{[4-(piperidin-4-yl)phenyl]amino}-1,2-dihydropyrazin-2-one] | 306

The remaining lines, values ahead:

EC50 [nM] | SMILES
775 | Cn1cc(-c2ccc(F)c(N3Cc4cc(C(C)(C)C)sc4C3=O)c2CO)cc(Nc2ccncn2)c1=O [Compound 141, 5-(3-{2-tert-butyl-6-oxo-4H,5H,6H-thieno[2,3-c]pyrrol-5-yl}-4-fluoro-2-(hydroxymethyl)phenyl)-1-methyl-3-(pyrimidin-4-ylamino)-1,2-dihydropyridin-2-one]
28.9 | CN1CCN(c2ccc(Nc3cc(-c4cccc(N5Cc6cc(C(C)(C)C)sc6C5=O)c4CO)cn(C)c3=O)nc2)CC1 [Compound 146, 5-(3-{2-tert-butyl-6-oxo-4H,5H,6H-thieno[2,3-c]pyrrol-5-yl}-2-(hydroxymethyl)phenyl)-1-methyl-3-{[5-(4-methylpiperazin-1-yl)pyridin-2-yl]amino}-1,2-dihydropyridin-2-one]
149 | Cn1cc(-c2cccc(N3Cc4cc(C(C)(C)C)sc4C3=O)c2CO)cc(Nc2cc3n(n2)CCOC3)c1=O [Compound 154, 5-(3-{2-tert-butyl-6-oxo-4H,5H,6H-thieno[2,3-c]pyrrol-5-yl}-2-(hydroxymethyl)phenyl)-1-methyl-3-{4H,6H,7H-pyrazolo[3,2-c][1,4]oxazin-2-ylamino}-1,2-dihydropyridin-2-one]
229 | Cc1cc(Nc2cc(-c3cccc(N4Cc5cc(C(C)(C)C)sc5C4=O)c3CO)cn(C)c2=O)n[nH]1 [Compound 157, 5-(3-{2-tert-butyl-6-oxo-4H,5H,6H-thieno[2,3-c]pyrrol-5-yl}-2-(hydroxymethyl)phenyl)-1-methyl-3-[(5-methyl-1H-pyrazol-3-yl)amino]-1,2-dihydropyridin-2-one]

Reference: patent publication US9249123B2, “Pyridinones/pyrazinones, method of making, and method of use thereof” (Genentech, Inc., priority 2010, dated 2016)
